The term IC50 denotes the point on the concentration scale where inhibition reaches its midpoint.

In this test the target is T1, dN-SARM1 protein (Homo sapiens, UniProt Q6SZW1).
T1 construct: the N-terminal mitochondrial localization signal peptide of SARM1 was removed
T1 sequence (Q6SZW1 28-724): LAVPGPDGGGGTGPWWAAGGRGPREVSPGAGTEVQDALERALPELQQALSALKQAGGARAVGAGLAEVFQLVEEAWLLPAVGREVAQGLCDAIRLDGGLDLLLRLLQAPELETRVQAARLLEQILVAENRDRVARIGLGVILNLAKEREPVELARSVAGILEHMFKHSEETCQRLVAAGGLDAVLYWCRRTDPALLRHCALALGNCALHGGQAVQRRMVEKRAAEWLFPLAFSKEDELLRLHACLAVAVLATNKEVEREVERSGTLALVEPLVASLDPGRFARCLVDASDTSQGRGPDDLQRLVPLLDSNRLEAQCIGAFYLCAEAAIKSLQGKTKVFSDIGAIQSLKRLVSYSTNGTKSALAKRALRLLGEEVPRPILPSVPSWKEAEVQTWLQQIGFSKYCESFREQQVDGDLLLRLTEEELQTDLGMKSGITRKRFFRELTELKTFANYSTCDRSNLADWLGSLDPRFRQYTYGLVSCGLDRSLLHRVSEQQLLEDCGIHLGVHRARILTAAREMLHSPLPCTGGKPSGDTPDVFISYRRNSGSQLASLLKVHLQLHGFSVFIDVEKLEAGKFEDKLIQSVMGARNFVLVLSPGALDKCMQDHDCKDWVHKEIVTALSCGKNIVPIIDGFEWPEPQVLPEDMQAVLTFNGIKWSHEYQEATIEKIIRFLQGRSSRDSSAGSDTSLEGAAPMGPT
The test is described as follows: In vitro biochemical assay for inhibiting SARM1 enzymatic activity (IC50), PC6 fluorescence method. As to conditions: 50 μM NAD, 50 μM PC6, 50 μM NMN activator. As for the experimental part: 200 μM compound was first added to a solution of 0.05 μg/ml dN-SARM1 in 50 mM Tris-HCl (pH 7.5). Half of the mixture was added to an equal volume of a solution of 0.05 μg/ml dN-SARM1 in 50 mM Tris-HCl (pH 7.5) and mixed. The drug was diluted 6 times in this manner, with the final concentrations being 200, 100, 50, 25, 12.5, 6.25, 3.125 μM, or 200, 50, 12.5, 3.125, 0.78, 0.195, 0.049 μM, respectively. The protein without inhibitors added, being used as control group, was incubated at room temperature for 10 minutes.
50 μM NAD, 50 μM PC6 as substrate and 50 μM NMN as activator were added to the dN-SARM1 protein incubated with the inhibitor and reacted for 30 minutes at room temperature. The concentration of each component was the final concentration in the reaction system.
During the reaction, PC6 fluorescence spectrum dynamics were detected by a microplate reader, wherein the excitation wavelength and emission wavelength for detection were 390 nm and 520 nm, respectively. Finally, the reaction rate was used to express the activity of the protein, and the half inhibitory concentration was calculated. The higher the reaction rate, the stronger the protein activity, and the lower the inhibitory efficiency of the compound.
The dose curve of compounds inhibiting SARM1 enzymatic activity was determined using the above method.

Counter-ions that a name gives are not always drawn.

Compound `COc1ccc2ncc(-c3cccc(S(N)(=O)=O)c3)n2c1` [Compound 5] came in with an IC50 of 1 to 10 µM.
The same measure for `COc1cccc(-c2cnc3ccc(N(C)C(=O)OC(C)(C)C)cn23)n1` [Compound 16]: 1 to 10 µM; for `CN(C(=O)OC(C)(C)C)c1ccc2ncc(-c3ccccn3)n2c1` [Compound 18]: 1 to 10 µM.
The compound `COC(=O)c1ccn2c(-c3ccccc3)cnc2c1` [Compound 23] showed an IC50 of 1 to 10 µM.
Turning to `CC(=O)N(C)c1ccc2ncc(-c3ccccc3)n2c1` [Compound 42], the IC50 is less than 1 µM.
With `CC(=O)N(C)c1ccc2ncc(-c3cccs3)n2c1` [Compound 43], the IC50 is 1 to 10 µM.
With `CNc1ccc2ncc(-c3cccc(S(=O)(=O)N(C)C(=O)OC(C)(C)C)c3)n2c1` [Compound 59, tert-butyl methyl ((3-(6-(methylamino)imidazo[1,2-a]pyridin-3-yl)phenyl)sulfonyl)carbamate], the IC50 lay within 1 to 10 µM.
The same measure for `CNc1ccc2ncc(-c3cccc(S(=O)(=O)NC)c3)n2c1` [Compound 60, N-methyl-3-(6-(methylamino)imidazo[1,2-a]pyridin-3-yl)benzenesulfonamide]: 1 to 10 µM.
For the compound `CN(C(=O)OC(C)(C)C)c1ccc2ncc(-c3cccc(S(N)(=O)=O)c3)n2c1` [Compound 61, tert-butyl methyl (3-(3-sulfamoylphenyl)imidazo[1,2-a]pyridin-6-yl)carbamate], the half-inhibitory concentration (IC50) is 1 to 10 µM.
Compound `CNc1ccc2ncc(-c3cccc(S(N)(=O)=O)c3)n2c1` [Compound 62, 3-(6-(methylamino)imidazo[1,2-a]pyridin-3-yl) benzenesulfonamide] yielded a half-inhibitory concentration (IC50) of 1 to 10 µM.
`CNc1ccc2ncc(-c3cccc(C(N)=O)c3)n2c1` [Compound 64] gave an IC50 of 1 to 10 µM.
Turning to `CNc1ccc2ncc(-c3ccccc3C)n2c1` [Compound 67], the IC50 was 1 to 10 µM.
For `CNc1ccc2ncc(-c3ccc(OC)cc3)n2c1` [Compound 72] the value was 1 to 10 µM.
Turning to `CNc1ccc2ncc(-c3cccnc3)n2c1` [Compound 73], the IC50 was 1 to 10 µM.
In turn, `CNc1ccc2ncc(-c3ccncc3)n2c1` [Compound 74] had an IC50 of 1 to 10 µM.
On to `CNc1ccc2ncc(-c3ccccn3)n2c1` [Compound 76], for which the IC50 fell in the range of 1 to 10 µM.
`CC(C)(C)OC(=O)N1CCOCCN(C(=O)OC(C)(C)C)S(=O)(=O)c2cccc(c2)-c2cnc3ccc1cn23` [Compound 80, di-tert-butyl(E)-7-oxa-3-thio-4,10-diaza-1(3,6)-imidazol[1,2-a]pyridin-2(1,3)-phenylcyclodecane-4,10-dicarboxylate 3,3-dioxide] yielded an IC50 of 1 to 10 µM.
`O=S1(=O)NCCOCCNc2ccc3ncc(n3c2)-c2cccc1c2` [Compound 81, (E)-7-oxa-3-thia-4,10-diaza-1(3,6)-imidazo[1,2-a]pyridine-2(1,3)-benzocyclodecane 3,3-dioxide] came in with an IC50 of 1 to 10 µM.
As to `COc1ccc2ncc(Nc3ccccc3)n2c1` [Compound 82, 6-methoxy-N-phenylimidazo[1,2-a]pyridin-3-amine], the IC50 lay within 1 to 10 µM.
Turning to `CN(C(=O)OC(C)(C)C)c1ccc2ncc(C3=CCCCC3)n2c1` [Compound 83], the IC50 was 1 to 10 µM.
For `CNc1ccc2ncc(C3CCCCC3)n2c1` [Compound 85, 3-cyclohexyl-N-methylimidazo[1,2-a]pyridin-6-amine] the value was 1 to 10 µM.
The same measure for `Brc1cnc2ccc(NC3CCOC3)cn12` (centres unmarked) [Compound 86, 3-bromo-N-(tetrahydrofuran-3-yl)imidazo[1,2-a]pyridin-6-amine]: less than 1 µM.
The same measure for `NS(=O)(=O)c1cccc(-c2cnc3ccc(N[C@@H]4CCCNC4)cn23)c1` [Compound 89, (R)-3-(6-(piperidin-3-ylamino)imidazo[1,2-a]pyridin-3-yl)benzenesulfonamide]: less than 1 µM; for `CN(c1ccc2ncc(-c3ccccc3)n2c1)S(C)(=O)=O` [Compound 91, N-methyl-N-(3-phenylimidazo[1,2-a]pyridin-6-yl)methanesulfonamide]: 1 to 10 µM; for `CC(=O)N(C)c1ccc2ncc(-c3ccccc3Cl)n2c1` [Compound 92, N-(3-(2-chlorophenyl)imidazo[1,2-a]pyridin-6-yl)-N-methylacetamide]: 1 to 10 µM.
With `Cc1ncsc1-c1ccc(CNC(=O)[C@@H]2C[C@@H](O)CN2C(=O)[C@@H](NC(=O)COCCOCC(=O)N(C)c2ccc3ncc(-c4ccccc4Cl)n3c2)C(C)(C)C)cc1` [Compound 117, (2S,4R)-1-((S)-12-(tert-butyl)-2-(3-(2-chlorophenyl)imidazo[1,2-a]pyridin-6-yl)-3,10-dioxo-5,8-dioxa-2,11-diazahexadecane-13-acyl)-4-hydroxy-N-(4-(4-methylthiazol-5-yl)benzyl)pyrrolidin-2-carboxamide], the IC50 lay within 1 to 10 µM.
The same measure for `CNc1ccc2ncc(-c3cccc(NC(=O)COCCOCCOCC(=O)N[C@H](C(=O)N4C[C@H](O)C[C@H]4C(=O)NCc4ccc(-c5scnc5C)cc4)C(C)(C)C)c3)n2c1` [Compound 120, (2S,4R)-1-((S)-2-(tert-butyl)-14-((3-(6-(methylamino)imidazo[1,2-a]pyridin-3-yl)phenyl)amino)-4,14-dioxo-6,9,12-trioxa-3-azatetradecanoyl)-4-hydroxy-N-(4-(4-methylthiazol-5-yl)benzyl)pyrrolidin-2-carboxamide hydrochloride]: less than 1 µM.
In the case of `CNc1ccc2ncc(-c3cccc4c3C(=O)NC4)n2c1` [Compound 165], the concentration for half-maximal inhibition (IC50) is less than 1 µM.
For `CNc1ccc2ncc(-c3ccnc4[nH]ccc34)n2c1` [Compound 166] the value was less than 1 µM; for `CNc1ccc2ncc(-c3cccc(NC(=O)c4ccccc4)n3)n2c1` [Compound 172], less than 1 µM; for `CN(C(=O)OC(C)(C)C)c1ccc2ncc(-c3cccc4nccn34)n2c1` [Compound 173], 1 to 10 µM.
For `CNC(=O)c1ccccc1-c1cnc2ccc(N(C)C(=O)OC(C)(C)C)cn12` [Compound 174] the value was less than 1 µM; for `CN(C(=O)OC(C)(C)C)c1ccc2ncc(-c3ccccc3C(=O)NC3CCOCC3)n2c1` [Compound 175], less than 1 µM.
The same measure for `CNC(=O)c1ccccc1-c1cnc2ccc(NC)cn12` [Compound 176]: 1 to 10 µM; for `CNc1ccc2ncc(-c3ccccc3C(=O)NC3CCOCC3)n2c1` [Compound 177]: 1 to 10 µM; for `CN(C(=O)OC(C)(C)C)c1ccc2ncc(-c3cccc(-n4cccn4)c3)n2c1` [Compound 178]: less than 1 µM.
The compound `CNc1ccc2ncc(-c3cccc(-n4cccn4)c3)n2c1` [Compound 179] came in with an IC50 of less than 1 µM.
`CNc1ccc2ncc(-c3cccc(N)n3)n2c1` [Compound 180] had a concentration for half-maximal inhibition (IC50) of 1 to 10 µM.
Compound `CN(C(=O)OC(C)(C)C)c1ccc2ncc(-c3ccnc(NC(=O)c4ccccc4)c3)n2c1` [Compound 182] registered an IC50 of 1 to 10 µM.
For the compound `CN(C(=O)OC(C)(C)C)c1ccc2ncc(-c3ccnc4[nH]ccc34)n2c1` [Compound 184], the IC50 lay in the range of 1 to 10 µM.
`CNc1ccc2ncc(-c3ccnnc3)n2c1` [Compound 186] registered an IC50 of 1 to 10 µM.
On to `CNc1ccc2ncc(-c3ccccc3C(C)NC(=O)C3CCOCC3)n2c1` (centres unmarked) [Compound 191], for which the IC50 lay in the range of 1 to 10 µM.
`CNc1ccc2ncc(-c3ccc4cc[nH]c4n3)n2c1` [Compound 192]: the IC50 fell in the range of 1 to 10 µM.
The same measure for `CNc1ccc2ncc(-c3ccc(NC(=O)C4CCOCC4)cn3)n2c1` [Compound 193]: 1 to 10 µM; for `CN(C(=O)OC(C)(C)C)c1ccc2ncc(-c3cnc(N)nc3)n2c1` [Compound 194]: 1 to 10 µM.
For `CNc1ccc2ncc(-c3cnc(N)nc3)n2c1` [Compound 195] the value was 1 to 10 µM.
Take `CN(C(=O)OC(C)(C)C)c1ccc2ncc(-c3ccc4[nH]ccc4n3)n2c1` [Compound 196]: the 50% inhibitory concentration (IC50) fell in the range of 1 to 10 µM.
As for `CNc1ccc2ncc(-c3ccc4[nH]ccc4n3)n2c1` [Compound 197], the IC50 is 1 to 10 µM.
`CN(C(=O)OC(C)(C)C)c1ccc2ncc(-c3ccc4[nH]ccc4c3)n2c1` [Compound 199] displayed an IC50 of 1 to 10 µM.
The compound `CNc1ccc2ncc(-c3cccc(-n4cccc4)c3)n2c1` [Compound 200] yielded an IC50 of 1 to 10 µM.

The record behind these values is patent publication US20240368168A1, “SARM1 ENZYME ACTIVITY INHIBITOR AND APPLICATION THEREOF” (ARTIVILA BIOPHARMA, priority 2021, published 2024).
